As usually defined, the IC50 is the point on the concentration scale where inhibition reaches its midpoint.

Experiment [1] deals with HeLa. The experiment can be described thus: Inhibition of cell cycle progression in human HeLa cells harboring Fucci2 assessed as cell cycle arrest at G2/M phase at 2 times of IC50 incubated for 2 days by fluorescence microscopic analysis. It counts as functional, cell-based. The settings on record: time 2.0 day.
Experiment [2] relates to HeLa. Kind of experiment: Cytotoxicity against human HeLa cells harboring Fucci2 assessed as reduction in cell growth incubated for 3 days by MTT assay. It is filed as functional, cell-based. Conditions: 72 h. On the technique in general: Tetrazolium dyes change colour on reduction, which living cells bring about.
The test system of experiment [3] is HeLa. Kind of experiment: Inhibition of cell cycle progression in human HeLa cells harboring Fucci2 assessed as cell cycle arrest at S phase at 2 times of IC50 incubated for 2 days by fluorescence microscopic analysis. It is filed as functional, cell-based. Conditions: time 2.0 day.
Experiment [4] concerns HeLa. Kind of experiment: Induction of cell cycle arrest in human HeLa cells assessed as accumulation in G2/M phase at 15 uM incubated for 1 day by propidium iodide staining based flow cytometry analysis (reference value: 14.2 %). It counts as functional. Background: Flow cytometry measures light scatter and fluorescence of single cells or particles in a stream.
Experiment [5] concerns HeLa. Kind of experiment: Induction of cell cycle arrest in human HeLa cells assessed as accumulation at S phase at 15 uM incubated for 1 day by propidium iodide staining based flow cytometry analysis (reference value: 26.1 %). It counts as functional.
For experiment [6], the system named is HeLa. The experiment can be described thus: Induction of cell cycle arrest in human HeLa cells assessed as accumulation at G1 phase at 15 uM incubated for 1 day by propidium iodide staining based flow cytometry analysis (reference value: 59.7 %). It counts as functional.

Active and inactive are the calls of the source. No cut-off for these calls is given here.

In the case of `COC(=O)c1ccc(O)c(C[C@]2(C)[C@@H](C)CC[C@]3(C)C(C)=CCC[C@@H]23)c1`, the inhibition result in the experiment on HeLa [1] and in the experiment with HeLa [3] was “inactive” in each case. For the same compound, the IC50 in the experiment with HeLa [2] was 13 µM.
As to `CC1=CCC[C@H]2[C@](C)(CC3=C(O)C(=O)C=C(NCCC(C)C)C3=O)[C@@H](C)CC[C@]12C` [NAKIJIQUINONE N], the inhibition entry in the experiment on HeLa [1] and in the experiment on HeLa [3] was “Active” each time. For the same compound, the 50% inhibitory concentration (IC50) in the experiment on HeLa [2] worked out at 30 µM.
For `CC1=CCC[C@H]2[C@](C)(CC3=C(O)C(=O)C=C(NCCC[S+](C)[O-])C3=O)[C@@H](C)CC[C@]12C` (stereo partly drawn) [NAKIJIQUINONE I], the inhibition result in the experiment with HeLa [1] and in the experiment with HeLa [3] was “Active” each time. Besides, the IC50 with HeLa [2] worked out at 16 µM.
On to `CC1=CCC[C@H]2[C@](C)(CC3=C(O)C(=O)C=C(N)C3=O)[C@@H](C)CC[C@]12C`, for which the Activity in the experiment on HeLa [4] is recorded as 26.3%; with HeLa [5], 46.5%; with HeLa [6], 27.2%. In addition, the inhibition result in the experiment on HeLa [1] and in the experiment on HeLa [3] was “Active” throughout. Further, the IC50 with HeLa [2] stood at 18 µM.
As for `CC1=CCC[C@H]2[C@](C)(CC3=C(O)C(=O)C=C(NCCc4ccccc4)C3=O)[C@@H](C)CC[C@]12C` [NAKIJIQUINONE Q], the inhibition result in the experiment on HeLa [1] and with HeLa [3] was “Active” in each case. Besides, the IC50 in the experiment with HeLa [2] stood at 36 µM.

The values above are taken from ChEMBL document CHEMBL4680334, “Fluorescent image-based high-content screening of extracts of natural resources for cell cycle inhibitors and identification of a new sesquiterpene quinone from the sponge, Dactylospongia metachromia” (Bioorg Med Chem, 2021).
